Measurements from US20250288584A1, “COMBINATIONS COMPRISING POSITIVE ALLOSTERIC MODULATORS OR ORTHOSTERIC AGONISTS OF METABOTROPIC GLUTAMATERGIC RECEPTOR SUBTYPE 2 AND THEIR USE” (JANSSEN PHARMACEUTICA NV, priority 2014, published 2025).
Values joined by “and” are separate entries in the source; they are usually repeats but may differ in a detail not shown here. Equal values may be shown once. Read-outs that look alike come from different tables or passages of the source.

Tests used:
[1] = system: 6 Hz (32 mA) psychomotor seizures; experiment: 6 Hz psychomotor seizure test, 32 mA (incl. TPE determination); type: in vivo, mice; conditions: for ED50: Mus musculus, read-out: ED50 (95% CI) 32 mA
In short: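 Mice dosed s.c. into a loose skin fold (one compound p.o.) at 0.01 mL/g body weight. Focal seizures induced by corneal stimulation (6 Hz, 0.2 msec rectangular pulse, 3 sec) at 32 mA; absence of stun, forelimb clonus, vibrissae twitching and Straub-tail scored as protection. TPE determined in this assay; ED50 from evenly spaced doses.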

corneal kindled seizures = experiment: Mouse corneal kindling model; type: in vivo, mice; conditions: for Mean Seizure Score: Racine 0 to 5
Description: After the mice reached a stable kindled state, the test compound or vehicle was administered and, at the previously determined TPE, each animal was given the electrical stimulus indicated above. […] One dose of LEV and two doses of Co.

human mGlu2 receptor = target: T1, human mGlu2 receptor (Homo sapiens, UniProt Q14416); experiment: [35S]GTPγS binding assay, mGluR2 PAM; type: biochemical; conditions: for Emax: maximal % effect relative to control glutamate response, EC20 glutamate, read-out: GTPγS-hmGluR2 PAM Emax
T1 construct: expressed in transfected cells; host or cells: CHO cells
T1 sequence (Q14416 19-872): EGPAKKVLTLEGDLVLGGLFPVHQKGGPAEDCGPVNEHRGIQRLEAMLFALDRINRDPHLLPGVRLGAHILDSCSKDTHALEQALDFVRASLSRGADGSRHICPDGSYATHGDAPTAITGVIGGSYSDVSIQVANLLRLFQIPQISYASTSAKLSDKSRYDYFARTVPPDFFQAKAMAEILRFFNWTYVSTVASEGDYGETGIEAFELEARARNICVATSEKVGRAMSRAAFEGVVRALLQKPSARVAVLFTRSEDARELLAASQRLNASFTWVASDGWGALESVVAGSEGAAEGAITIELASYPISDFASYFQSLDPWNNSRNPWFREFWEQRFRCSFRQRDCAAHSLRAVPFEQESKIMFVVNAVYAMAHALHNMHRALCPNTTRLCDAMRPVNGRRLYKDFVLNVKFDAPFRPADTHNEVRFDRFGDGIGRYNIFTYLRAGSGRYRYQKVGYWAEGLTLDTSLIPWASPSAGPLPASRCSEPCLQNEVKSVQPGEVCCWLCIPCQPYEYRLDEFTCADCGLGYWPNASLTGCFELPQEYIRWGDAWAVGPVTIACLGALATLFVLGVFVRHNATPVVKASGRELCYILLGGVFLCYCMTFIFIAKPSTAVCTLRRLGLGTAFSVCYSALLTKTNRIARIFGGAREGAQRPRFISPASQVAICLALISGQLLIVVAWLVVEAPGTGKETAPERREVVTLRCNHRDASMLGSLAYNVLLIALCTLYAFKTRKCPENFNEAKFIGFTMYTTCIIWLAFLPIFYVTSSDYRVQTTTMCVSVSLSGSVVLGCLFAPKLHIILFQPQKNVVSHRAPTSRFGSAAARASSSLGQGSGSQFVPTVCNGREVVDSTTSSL

MES seizures = conditions: in vivo; cited from earlier work
[2] = system: pentylenetetrazol seizures; conditions: in vivo; cited from earlier work

Structure (SMILES): Fc1ccc(N2CCN(Cc3ccn4c(CC5CC5)nnc4c3C(F)(F)F)CC2)c(F)c1 [Co. No. 1]
- # protected/# tested ([1]; 0.5 mg/kg s.c., 0.5 h): 1/8
- # protected/# tested ([1]; 2.5 mg/kg s.c., 0.25 h): 1/8
- # protected/# tested ([1]; 2.5 mg/kg s.c., 0.5 h): 5/8 and 7/16
- # protected/# tested ([1]; 5 mg/kg s.c., 0.25 h): 8/12
- # protected/# tested ([1]; 5 mg/kg s.c., 0.5 h): 8/12
- # protected/# tested ([1]; 10 mg/kg s.c., 0.25 h): 4/4
- # protected/# tested ([1]; 10 mg/kg s.c., 0.5 h): 4/4 and 7/8
- # protected/# tested ([1]; 10 mg/kg s.c., 1 h): 3/4
- # protected/# tested ([1]; 10 mg/kg s.c., 2 h): 0/4
- # protected/# tested ([1]; 10 mg/kg s.c., 4 h): 0/4
- # protected/# tested ([1]; 20 mg/kg s.c., 0.5 h): 8/8
- ED50 ([1]; sc, at TPE): 2.8 mg/kg
- ED50 (95% CI) 32 mA ([1]; s.c., at TPE): ED50 (95% CI): 2.8 mg/kg (1.3 to 4.3)
- Seizure score (dose) Corneal kindling / Mean Seizure Score (corneal kindled seizures; 20 mg/kg s.c., Racine score 0-5): 3.7
- # protected/# tested (corneal kindled seizures; Co. No. 1 20 mg/kg): 5/16
- % Protected (corneal kindled seizures; Co. No. 1 20 mg/kg): 31%
- # protected/# tested (corneal kindled seizures; Co. No. 1 30 mg/kg): 3/12
- % Protected (corneal kindled seizures; Co. No. 1 30 mg/kg): 25%
- Mean Seizure Score (corneal kindled seizures; Co. No. 1 30 mg/kg): 4.0

Structure (SMILES): C[C@H](Oc1ccc(F)cc1F)c1ccn2c(CC3CC3)nnc2c1C(F)(F)F [Co. No. 6-b, 3-(Cyclopropylmethyl)-7-[(1S)-1-(2,4-difluorophenoxy)ethyl]-8-(trifluoromethyl)[1,2,4]triazolo[4,3-a]pyridine]
- Emax (human mGlu2 receptor): 256%
- # protected/# tested ([1]; 2.5 mg/kg p.o., 0.5 h): 1/8
- # protected/# tested ([1]; 5 mg/kg p.o., 0.5 h): 2/8
- # protected/# tested ([1]; 10 mg/kg p.o., 0.25 h): 1/4
- # protected/# tested ([1]; 10 mg/kg p.o., 0.5 h): 3/4 and 6/8
- # protected/# tested ([1]; 10 mg/kg p.o., 1 h): 0/4
- # protected/# tested ([1]; 10 mg/kg p.o., 2 h): 1/4
- # protected/# tested ([1]; 10 mg/kg p.o., 4 h): 0/4
- # protected/# tested ([1]; 20 mg/kg p.o., 0.25 h): 4/4
- # protected/# tested ([1]; 20 mg/kg p.o., 0.5 h): 3/4 and 7/8
- # protected/# tested ([1]; 20 mg/kg p.o., 1 h): 4/4
- # protected/# tested ([1]; 20 mg/kg p.o., 2 h): 0/4
- # protected/# tested ([1]; 20 mg/kg p.o., 4 h): 1/4
- ED50 ([1]; po, 0.5 h, p.o., 0.5 h TPE): 7.2 mg/kg
- ED50 (95% CI) 32 mA ([1]; p.o., 0.5 h TPE): ED50 (95% CI): 7.2 mg/kg (4.2 to 11.8)

Structure (SMILES): CCCCn1ccc(N2CCC(c3ccc(F)cc3F)CC2)c(Cl)c1=O [Co. No. 25-a]
- EC50 (human mGlu2 receptor; in presence of EC20 glutamate, read-out: GTPγS-hmGluR2 PAM pEC50 (converted)): 85.1 nM
- Emax (human mGlu2 receptor): 261%
- # protected/# tested ([1]; 1 mg/kg s.c., 0.25 h): 1/8
- # protected/# tested ([1]; 5 mg/kg s.c., 0.25 h): 4/8
- # protected/# tested ([1]; 10 mg/kg s.c., 0.25 h): 2/4 and 4/8
- # protected/# tested ([1]; 10 mg/kg s.c., 0.5 h): 1/4
- # protected/# tested ([1]; 10 mg/kg s.c., 1 h): 1/4
- # protected/# tested ([1]; 10 mg/kg s.c., 2 h): 0/4
- # protected/# tested ([1]; 10 mg/kg s.c., 4 h): 0/4
- # protected/# tested ([1]; 15 mg/kg s.c., 0.25 h): 3/8
- # protected/# tested ([1]; 20 mg/kg s.c., 0.25 h): 4/4 and 8/8
- # protected/# tested ([1]; 20 mg/kg s.c., 0.5 h): 3/4
- # protected/# tested ([1]; 20 mg/kg s.c., 1 h): 4/4
- # protected/# tested ([1]; 20 mg/kg s.c., 2 h): 1/4
- # protected/# tested ([1]; 20 mg/kg s.c., 4 h): 1/4
- ED50 ([1]; sc, at TPE): 7.7 mg/kg
- ED50 (95% CI) 32 mA ([1]; s.c., at TPE): ED50 (95% CI): 7.7 mg/kg (2.3 to 18.4)

Structure (SMILES): CC[C@@H](C(N)=O)N1CCCC1=O [LEV, (S)-2-(2-oxopyrrolidin-1-yl) butanamide, reference compound]
- activity in maximal electroshock (MES) seizure test (MES seizures): no activity
- activity in pentylenetetrazol seizure test [2]: no activity
- # protected/# tested (corneal kindled seizures; LEV 3 mg/kg): 5/13
- % Protected (corneal kindled seizures; LEV 3 mg/kg): 38%
- Mean Seizure Score (corneal kindled seizures; LEV 3 mg/kg): 3.3
